These results are taken from US7531554B2, “4-oxoquinoline compound and use thereof as HIV integrase inhibitor” (Japan Tobacco Inc., priority 2004, dated 2009).

Structures can show the parent of a compound that is named as a salt.

The target in the first data set is T1, HIV integrase (Human immunodeficiency virus type 1 group M subtype B, UniProt P12497, F1332H).
T1 construct: HIV integrase full length gene (J. Virol., 67, 425-437 (1993)) in which phenylalanine at codon 185 was substituted by histidine; made in house; host or cells: Escherichia coli BL21(DE3)
The data set is described as follows: Determination of enzyme (HIV integrase) inhibitory activity. Format: biochemical. The following applies: recombinant integrase protein (F185H), donor DNA/target DNA, absorbance at 450 nm. In short, it runs like this:
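Full-length HIV integrase bearing F185H mutation, E. coli-expressed and purified, preincubated with compound on plate-bound biotinylated donor DNA for 60 min at 37 °C; digoxigenin-labelled target DNA then added for 10 min. Strand transfer detected by peroxidase anti-digoxigenin ELISA at 450 nm; IC50 from inhibition versus no-compound and no-enzyme controls.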
In general, IC50 refers to the concentration that inhibits the measured activity by half. For `COc1cc2c(cc1Cc1c(F)cccc1C(F)(F)F)c(=O)c(C(=O)O)cn2[C@H](CO)C(C)C` [Example 1-12, 6-(2-fluoro-6-(trifluoromethyl)benzyl)-1-((1S)-1-(hydroxymethyl)-2-methylpropyl)-7-methoxy-4-oxo-1,4-dihydroquinoline-3-carboxylic acid], the IC50 stood at 260 nM. The same measure, in the same setting: under `CC(C)[C@@H](CO)n1cc(C(=O)O)c(=O)c2cc(Cc3cccc(Cl)c3F)c(OCCN3CCCC3)cc21` [Example 4-17, 6-(3-chloro-2-fluorobenzyl)-1-((1S)-1-(hydroxymethyl)-2-methylpropyl)-4-oxo-7-(2-(pyrrolidin-1-yl)ethoxy)-1,4-dihydroquinoline-3-carboxylic acid] stands 11 nM. Still for that read-out and setting: the figure for `CC(C)(C)[C@@H](CO)n1cc(C(=O)O)c(=O)c2cc(Cc3cccc(Cl)c3F)c(N3CCOCC3)cc21` [Example 7-6, 6-(3-chloro-2-fluorobenzyl)-1-((1S)-2,2-dimethyl-1-(hydroxymethyl)propyl)-7-(morpholin-4-yl)-4-oxo-1,4-dihydroquinoline-3-carboxylic acid] is 4.3 nM.

Regarding `COc1cc2c(cc1Cc1c(F)cccc1Cl)c(=O)c(C(=O)O)cn2[C@H](CO)C(C)C` [Example 7-1, 6-(2-chloro-6-fluorobenzyl)-1-((1S)-1-(hydroxymethyl)-2-methylpropyl)-7-methoxy-4-oxo-1,4-dihydroquinoline-3-carboxylic acid], the IC50 was 17 nM. Turning to `CC(C)[C@@H](CO)n1cc(C(=O)O)c(=O)c2cc(Cc3cccc(Cl)c3F)c3c(c21)OCCO3` [Example 6-1, 10-(3-chloro-2-fluorobenzyl)-5-((1S)-1-hydroxymethyl-2-methylpropyl)-8-oxo-2,3,5,8-tetrahydro-1,4-dioxa-5-aza-phenanthrene-7-carboxylic acid], the IC50 was determined as 5.9 nM. In the case of `CC(C)[C@@H](CO)n1cc(C(=O)O)c(=O)c2cc(Cc3cccc(Cl)c3F)c(OCc3ccc(C(=O)O)cc3)cc21` [Example 4-57, 7-(4-carboxybenzyloxy)-6-(3-chloro-2-fluorobenzyl)-1-((1S)-1-(hydroxymethyl)-2-methylpropyl)-4-oxo-1,4-dihydroquinoline-3-carboxylic acid], the half-inhibitory concentration (IC50) came out at 3.8 nM.

For `CC(C)[C@@H](CO)n1cc(C(=O)O)c(=O)c2cc(Cc3cccc(Cl)c3F)c(OCCN3CCCCC3)cc21` [Example 4-13, 6-(3-chloro-2-fluorobenzyl)-1-((1S)-1-(hydroxymethyl)-2-methylpropyl)-4-oxo-7-(2-(piperidin-1-yl)ethoxy)-1,4-dihydroquinoline-3-carboxylic acid], the IC50 was 6.3 nM.

In the case of `COc1cc2c(cc1Cc1cccc(Cl)c1F)c(=O)c(C(=O)O)cn2[C@H](CO)CSC` [Example 2-3, 6-(3-chloro-2-fluorobenzyl)-1-((1R)-1-(hydroxymethyl)-2-(methylthio)ethyl)-7-methoxy-4-oxo-1,4-dihydroquinoline-3-carboxylic acid], the IC50 is 6.8 nM.

As for `CC(C)[C@@H](CO)n1cc(C(=O)O)c(=O)c2cc(Cc3cccc(Cl)c3F)c(OCC(=O)N(C)C)cc21` [Example 4-53, 6-(3-chloro-2-fluorobenzyl)-7-((dimethylaminocarbonyl)methoxy)-1-((1S)-1-(hydroxymethyl)-2-methylpropyl)-4-oxo-1,4-dihydroquinoline-3-carboxylic acid], the IC50 was 5 nM. On the same count and under the same terms, the figure for `COc1cc2c(cc1Cc1cccc(Cl)c1F)c(=O)c(C(=O)O)cn2[C@H](CO)CCSC` [Example 2-12, 6-(3-chloro-2-fluorobenzyl)-1-((1S)-1-(hydroxymethyl)-3-(methylthio)propyl)-7-methoxy-4-oxo-1,4-dihydroquinoline-3-carboxylic acid] is 5.7 nM; for `CSCC[C@@H](CO)n1cc(C(=O)O)c(=O)c2cc(Cc3cccc(Cl)c3F)ccc21` [Example 2-16, 6-(3-chloro-2-fluorobenzyl)-1-((1S)-1-(hydroxymethyl)-3-(methylthio)propyl)-4-oxo-1,4-dihydroquinoline-3-carboxylic acid] it is 5.8 nM; for `CC(=O)N1CCC(Oc2cc3c(cc2Cc2cccc(Cl)c2F)c(=O)c(C(=O)O)cn3[C@H](CO)C(C)C)CC1` [Example 4-45, 7-((1-acetylpiperidin-4-yl)oxy)-6-(3-chloro-2-fluorobenzyl)-1-((1S)-1-(hydroxymethyl)-2-methylpropyl)-4-oxo-1,4-dihydroquinoline-3-carboxylic acid] it is 13 nM. On the same count and under the same terms, the figure for `CC(C)[C@@H](CO)n1cc(C(=O)O)c(=O)c2cc(Cc3cccc(Cl)c3F)c(N3CCOCC3)cc21` [Example 4-9, 6-(3-chloro-2-fluorobenzyl)-1-((1S)-1-(hydroxymethyl)-2-methylpropyl)-7-(morpholin-4-yl)-4-oxo-1,4-dihydroquinoline-3-carboxylic acid] is 6 nM. On the same count and under the same terms, the figure for `CC(C)[C@@H](CO)n1cc(C(=O)O)c(=O)c2cc(Cc3cccc(Cl)c3F)c(OCc3ccccc3)cc21` [Example 4-43, 7-benzyloxy-6-(3-chloro-2-fluorobenzyl)-1-((1S)-1-(hydroxymethyl)-2-methylpropyl)-4-oxo-1,4-dihydroquinoline-3-carboxylic acid] is 6.4 nM; for `COc1cc2c(cc1Cc1ccc(F)cc1C(F)(F)F)c(=O)c(C(=O)O)cn2[C@H](CO)C(C)C` [Example 1-10, 6-(4-fluoro-2-(trifluoromethyl)benzyl)-1-((1S)-1-(hydroxymethyl)-2-methylpropyl)-7-methoxy-4-oxo-1,4-dihydroquinoline-3-carboxylic acid] it is 280 nM. Turning to `CC1CN(c2cc3c(cc2Cc2cccc(Cl)c2F)c(=O)c(C(=O)O)cn3[C@H](CO)C(C)C)CC(C)N1` (stereo partly drawn) [Example 4-22, 6-(3-chloro-2-fluorobenzyl)-7-(3,5-dimethylpiperazin-1-yl)-1-((1S)-1-(hydroxymethyl)-2-methylpropyl)-4-oxo-1,4-dihydroquinoline-3-carboxylic acid], the IC50 turned out to be 7.1 nM. On the same count and under the same terms, the figure for `CC(C)[C@@H](CO)n1cc(C(=O)O)c(=O)c2cc(Cc3cccc(Cl)c3F)cc(OCc3ccccc3)c21` [Example 3-9, 8-benzyloxy-6-(3-chloro-2-fluorobenzyl)-1-((1S)-1-(hydroxymethyl)-2-methylpropyl)-4-oxo-1,4-dihydroquinoline-3-carboxylic acid] is 5 nM; for `CC(C)[C@@H](CO)n1cc(C(=O)O)c(=O)c2cc(Cc3cccc(Cl)c3F)c(O[C@@H]3CCN(C)C3)cc21` [Example 4-55, 6-(3-chloro-2-fluorobenzyl)-1-((1S)-1-(hydroxymethyl)-2-methylpropyl)-7-((3R)-1-methylpyrrolidin-3-yloxy)-4-oxo-1,4-dihydroquinoline-3-carboxylic acid trifluoroacetate] it is 7.6 nM. For the molecule `CC(C)[C@@H](CO)n1cc(C(=O)O)c(=O)c2cc(Cc3cccc(Cl)c3F)c(OC3CCOCC3)cc21` [Example 4-36, 6-(3-chloro-2-fluorobenzyl)-1-((1S)-1-(hydroxymethyl)-2-methylpropyl)-4-oxo-7-(tetrahydropyran-4-yloxy)-1,4-dihydroquinoline-3-carboxylic acid], the IC50 was determined as 5.4 nM.

With `CC1CN(c2cc3c(cc2Cc2cccc(Cl)c2F)c(=O)c(C(=O)O)cn3[C@H](CO)C(C)C)CC(C)O1` (stereo partly drawn) [Example 4-31, 6-(3-chloro-2-fluorobenzyl)-7-(2,6-dimethylmorpholin-4-yl)-1-((1S)-1-(hydroxymethyl)-2-methylpropyl)-4-oxo-1,4-dihydroquinoline-3-carboxylic acid], the IC50 amounted to 13 nM. Regarding `CC(C)[C@@H](CO)n1cc(C(=O)O)c(=O)c2cc(Cc3cccc(Cl)c3F)c(N3CC[C@@H](O)C3)cc21` [Example 4-23, 6-(3-chloro-2-fluorobenzyl)-1-((1S)-1-(hydroxymethyl)-2-methylpropyl)-7-((3R)-3-hydroxypyrrolidin-1-yl)-4-oxo-1,4-dihydroquinoline-3-carboxylic acid], the IC50 was 27 nM. On the same count and under the same terms, the figure for `COc1cc2c(cc1Cc1cccc(Cl)c1F)c(=O)c(C(=O)O)cn2[C@H](CO)CCS(C)(=O)=O` [Example 2-13, 6-(3-chloro-2-fluorobenzyl)-1-((1S)-1-(hydroxymethyl)-3-mesylpropyl)-7-methoxy-4-oxo-1,4-dihydroquinoline-3-carboxylic acid] is 6.9 nM; for `CC(C)[C@@H](CO)n1cc(C(=O)O)c(=O)c2cc(Cc3cccc(Cl)c3F)c(Oc3cccnc3)cc21` [Example 4-20, 6-(3-chloro-2-fluorobenzyl)-1-((1S)-1-(hydroxymethyl)-2-methylpropyl)-4-oxo-7-(pyridin-3-yloxy)-1,4-dihydroquinoline-3-carboxylic acid hydrochloride] it is 9.3 nM.

System in the next data set: not given
Experiment: not given
Conditions: not given
The term melting point denotes the temperature of the solid-liquid transition. The molecule `O=C(O)c1cn(CCO)c2ccc(Cc3cccc(Cl)c3Cl)cc2c1=O` came in with a melting point of 247 to 249 °C.
